Literature values, collected in patent EP3850074B1, “BENEFIT AGENT DELIVERY PARTICLES” (Unilever Global IP Ltd, priority 2018, dated 2020).

Conditions: at 25°C and at atmospheric pressure

Structure (SMILES): Nc1nc(N)nc(N)n1 [melamine, 2,4,6-triamino-1,3,5-triazine]
- solubility in distilled water: about 0.3 g/L
